Reference: PubChem BioAssay (NCI)
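All cell lines were grown in 96-well plates and treated with compound for 48 hours. The concentration for 50% growth inhibition is given as GI50. The concentration for full growth arrest is given as TGI.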

What was measured:
Test in all cases: NCI anticancer screen, dose series, 48 h
[1] = tested on: LOX IMVI melanoma
[2] = tested on: MCF7 breast
[3] = tested on: NCI-H23 lung
[4] = tested on: UACC-257 melanoma
[5] = tested on: UO-31 renal
[6] = tested on: HOP-62 NSCLC
[7] = tested on: SK-MEL-2 melanoma
[8] = tested on: HT29 colon
[9] = tested on: HCT-15 colon
[10] = tested on: DU-145 prostate

| Structure (SMILES) | GI50 [1] | TGI [1] | GI50 [2] | TGI [2] | GI50 [3] | TGI [3] | GI50 [4] | TGI [4] | GI50 [5] | TGI [5] | GI50 [6] | TGI [6] | GI50 [7] | TGI [7] | GI50 [8] | TGI [8] | GI50 [9] | TGI [9] | GI50 [10] | TGI [10] |
| --- | --- | --- | --- | --- | --- | --- | --- | --- | --- | --- | --- | --- | --- | --- | --- | --- | --- | --- | --- | --- |
| COc1ccc(NC(=O)c2cccc(C3CCc4c(cc(OC)c(OC)c4OC)O3)c2)cc1 (stereo not given) | 3.94 µM | > 100 µM | 3.11 µM | > 100 µM | 4.56 µM | > 100 µM | 3.72 µM | > 100 µM | 2.36 µM | > 100 µM | 2.86 µM | > 100 µM | 2.95 µM | 8.79 µM | 3.17 µM | > 100 µM | 1.96 µM | > 100 µM | 2.93 µM | > 100 µM |
| CCC(=C(c1ccc(OCCN2CCCC2)cc1)c1ccc(OCCN2CCCC2)cc1)c1ccc(Cl)cc1 | 0.54 µM | 1.02 µM | 0.287 µM | 0.822 µM | 0.667 µM | 1.38 µM | 0.595 µM | 1.18 µM | 0.5 µM | 0.965 µM | 0.688 µM | 1.58 µM | 0.688 µM | 1.35 µM | 0.511 µM | 1.15 µM | 0.524 µM | 1.04 µM | 0.617 µM | 1.14 µM |
| O=C(COc1cccc(/C=C2\Oc3ccc4ccccc4c3C2=O)c1)c1ccc([N+](=O)[O-])cc1 | 7.5 µM | 20.5 µM | 11.1 µM | 28.6 µM | 21 µM | 80.8 µM | > 100 µM | > 100 µM | 36.7 µM | > 100 µM | 38.5 µM | > 100 µM | > 100 µM | > 100 µM | 36 µM | > 100 µM | 12.3 µM | 30.9 µM | 12.1 µM | 29.3 µM |
